The source of these data is patent publication US5670479A, “α-ketoamide derivatives as inhibitors of thrombosis” (Corvas International, Inc., priority 1994, dated 1997).

For test [1], the target named is T1, clot-bound a-thrombin (Homo sapiens, UniProt P00734).
T1 construct: from tissue; host or cells: washed clots formed from citrated plasma by adding CaCl2
In words: Inhibition of clot-bound thrombin (FPA generation in citrated plasma). It counts as biochemical. The protocol: Plasma clots were formed around wire hooks by the addition of CaCl2 (final concentration, 25 mM) to 500 μl aliquots of citrated plasma. After aging the clots for 60 minutes at 37° C. with constant agitation, the clots were washed 10 times with 2 ml aliquots of 0.1M NaCl buffered with 0.05M Tris-HCL, pH 7.4 over an 18 hour period. The washed clots were then incubated in 1 ml aliquots of citrated plasma for 60 minutes at 37° C. in the absence or presence of the various inhibitors. At timed intervals, 100 μl aliquots were removed and the reaction was terminated by the addition of the irreversible serine protease inhibitor, D-phenylalanyl-prolinyl-argininyl-CH2 Cl.
Unreacted fibrinogen was precipitated with ethanol, and the ethanol supernatants were then assayed for FPA.

Test [2] concerns Male Harlan Sprague Dawley rats. In words: Venous stasis model in rats. It counts as in vivo. Particulars: rat; for % Clot: mean ± S.E.M. The method, then:
This is one of the most commonly used models in the evaluation of antithrombotic compounds. Hladovec, J. Thromb. […] Talbot, M. D., et. al., Thromb.
Male Harlan Sprague Dawley rats (420-450 g) were acclimated at least 72 hours prior to use. The animals were fasted for 12 hours prior to surgery with free access to water. The animals were anesthetized with a sodium pentobarbital (Nembutal) given intraperitoneally at a dose of 50 mg/kg body weight and placed on a isothermal pad to maintain body temperature. The level of anesthesia was monitored every 15 minutes by: neuro-response to a tail pinch, respiration and body core temperature. The desired depth of surgical anesthesia was maintained by administering subsequent doses (5 mg/kg) intravenously. The left femoral artery was catheterized with polyethylene tubing (PE50) using standard procedures for blood pressure monitoring and blood sampling. The left and right femoral veins were catheterized with PE50 tubing for delivery of anesthetic and test compounds respectively.
Blood pressure, heart rate, core temperature and respiration were monitored continuously.
The abdomen of the animals is opened by making a vertical midline incision followed by isolation of the IVC using dissection. The segment extends from below the renal to above the iliac vessels (about 2 cm in length). The peripheral blood vessels are tied off and a ligature is loosely placed at the distal and proximal ends of the isolated segment. Rabbit brain thromboplastin (RBT)(Sigma Chemical Co., St. Louis Mo.) is prepared by resuspending the contents of the vial with 2 mL of sterile saline pre-warmed to 37° C. At the end of the 30 minute infusion period, RBT is systemically administered as a bolus injection (1.5 mL/kg) via the femoral catheter. Stasis is induced within the isolated IVC segment by securing the proximal and distal ligature 10 sec following the administration of the RBT. Following a 30 minute period of stasis the tied off IVC segment is removed and the contents weighed. Clot formation was defined as %clot: [Weight of the isolated clot/(Weight of the intact segment-the weight of the empty segment)] ×100. This method was used to correct for slight differences in segment size and fluid content.
Following termination of the experiment the animal was euthanized with a 120 mg/kg dose of Nembutal.

Test [3] has as its system baboons. The settings on record: baboon; dose which gives a 50% inhibition of platelet deposition; other direct antithrombins evaluated earlier in this model; cited from earlier work.
Test [4] has as its target a-thrombin (Homo sapiens, UniProt P00734). In words: Amidolytic thrombin assay (inhibitor constant Ki, Ki*). It counts as biochemical. Also on record: Purified human a-thrombin; purchased Enzyme Research Laboratories, Inc. The settings on record: human a-thrombin 0.25 nM, Pefachrome t-PA substrate, HBSA pH 7.5. The method, then: The ability of the compounds of the present invention to act as inhibitors of thrombin catalytic activity in comparison to Hirulog-1 (compound 25) was assessed by determining their inhibition constant, Ki.
Enzyme activity was determined using the chromogenic substrate Pefachrome t-PA (CH3 SO2 -D-hexahydrotyrosine-glycyl-L-arginine-p-nitroaniline, obtained from Pentapharm Ltd.). The substrate was reconstituted in deionized water prior to use.
Ki values were determined for test compounds using the following methodologies:
The assay was conducted by combining in appropriate wells of a Corning microtiter plate, […], […] of the test compound at a specified concentration diluted in HBSA (or HBSA alone for Vo(uninhibited velocity) measurement), and 50 mL of the chromogenic substrate diluted in HBSA. […] Velocities of Pefachrome-tPA substrate hydrolysis which occurred over a 40 minute time period was measured by the change in absorbance at 405 nm using a Thermo Max® Kinetic Microplate Reader. […]
The initial velocity of Pefachrome t-PA hydrolysis was measured by the change in absorbance at 405 nm using a Thermo Max® Kinetic Microplate Reader over a 2 minute period in which less than 5% of the added substrate was utilized. […]
Ki* was determined by fitting Vs/Vo verses [I] using Equation 1 by non-linear regression analysis. […]

Test [5] concerns the target thrombin (Homo sapiens, UniProt P00734). Particulars: reported in literature; cited from earlier work.

Consider “(D-Phe)-Pro-Arg-Pro-(Gly)4 -Asn-Gly-Asp-Phe-Glu-Glu-Ile-Pro-Glu-Glu-Tyr-Leu-OH [Hirulog-1]”, for which the “inhibition of clot-bound a-thrombin-mediated FPA generation” value in test [1] (citrated human plasma, 60 min, 37° C., compound 8 18.75 nM, Hirulog-1 500 nM, rHIR 4 nM, FIG. 5B) is “only transiently inhibited FPA generation”. In test [1] (percent inhibition of FPA generation at 60 min, FIG. 6), the “inhibition of clot-bound versus fluid-phase thrombin at 60 minutes incubation” value is “less inhibitory activity against clot-bound thrombin”. The “% Clot” value in test [2] (0.1 mg/kg i.v. bolus + 40 mg/kg/min i.v. infusion) came out at 25.75 ± 3.71%; in test [2] (0.1 mg/kg i.v. bolus + 60 mg/kg/min i.v. infusion), 26.50 ± 3.59%; in test [2] (0.1 mg/kg i.v. bolus + 80 mg/kg/min i.v. infusion), 25.75 ± 0.41%. Moreover, in test [2] (summary in words), the “effect on venous thrombus formation induced by stasis and thromboplastin” value was “did not have any effect”. Further, the “Antithrombotic Effects ED50” value in test [3] is given as 125 nmol/kg/min. In addition, the Ki in test [4] is 0.437 nM; in test [5], 2.56 nM.
